Measured values as given in patent US20100234390A1, “NOVEL COMPOUND AND THEIR USE” (priority 2007, published 2010).
Converted amounts (≈) assume the structure as drawn. Values belong to the compound of their own block, whether it stands above or below them.

Experiments:
Test in all cases: Agar dilution MIC
Conditions in all cases: 16-20 hours
[1] = test system: S. saprophyticus MRO 02003; format: cell-based
Procedure: (§1) Briefly, the compounds of invention were weighed, dissolved in dimethyl sulfoxide, serially two fold diluted in the same solvent and then incorporated into molten Mueller Hinton Agar (MHA) in a petridish just before solidification, with each petridish containing a different concentration of a compound.
(§2) The bacterial inoculum was prepared by picking 3 to 5 well isolated bacterial colonies with the same morphological appearance from an 18-24 hours old culture with an inoculating loop, transferring the growth to a tube containing 3 mL of normal saline and adjusting the turbidity of the saline suspension to 0.5 Mc Farland Turbidity Standard equivalent to a bacterial population of 1.5×10^8 colony forming units (CFU) per mL of suspension. The suspension was diluted 1:10 in saline (i.e. 0.5 mL suspension 4.5 mL saline) to get a bacterial population of 1.5×10^7 CFU/mL as inoculum.
(§3) The inoculated petridishes were incubated at 35° C. in an ambient atmosphere for 16-20 hours.

[2] = test system: S. epidermidis MRO 002046; format: cell-based
Procedure: as §1, §2, §3

[3] = test system: S. epidermidis MRO 02002; format: cell-based
Procedure: as §1, §2, §3

[4] = test system: S. haemolyticus MRO 02064; format: cell-based
Procedure: as §1, §2, §3

[5] = test system: S. epidermidis MRO 02095; format: cell-based
Procedure: as §1, §2, §3

[6] = test system: S. epidermidis MRO 02045; format: cell-based
Procedure: as §1, §2, §3

[7] = test system: S. aureus MRO 00013; format: cell-based, Staphylococcus aureus
Procedure: as §1, §2, §3

[8] = test system: S. aureus MRO 00059; format: cell-based, Staphylococcus aureus
Procedure: as §1, §2, §3

[9] = test system: S. aureus MRO 00048; format: cell-based, Staphylococcus aureus
Procedure: as §1, §2, §3

[10] = test system: S. aureus MRO 002053; format: cell-based, Staphylococcus aureus
Procedure: as §1, §2, §3

[11] = test system: S. aureus ATCC 43300; format: cell-based, Staphylococcus aureus
Procedure: as §1, §2, §3

[12] = test system: S. aureus MRO 0003; format: cell-based, Staphylococcus aureus
Procedure: as §1, §2, §3

[13] = test system: S. aureus MRO 00055; format: cell-based, Staphylococcus aureus
Procedure: as §1, §2, §3

[14] = test system: S. aureus MRO 00030; format: cell-based, Staphylococcus aureus
Procedure: as §1, §2, §3

[15] = test system: S. aureus ATCC 29213; format: cell-based, Staphylococcus aureus
Procedure: as §1, §2, §3

[16] = test system: S. aureus MRO 0001; format: cell-based, Staphylococcus aureus
Procedure: as §1, §2, §3

[17] = test system: M. catarrhalis ATCC 43617; format: cell-based, Moraxella catarrhalis
Procedure: as §1, §2, §3

[18] = test system: M. catarrhalis ATCC 43627; format: cell-based, Moraxella catarrhalis
Procedure: as §1, §2, §3

[19] = test system: M. catarrhalis ATCC 43628; format: cell-based, Moraxella catarrhalis
Procedure: as §1, §2, §3

[20] = test system: E. faecium MRO 04038; format: cell-based, Enterococcus faecium
Procedure: as §1, §2, §3

[21] = test system: E. faecium ATCC 700221; format: cell-based, Enterococcus faecium
Procedure: as §1, §2, §3

[22] = test system: E. faecium MRO 04198; format: cell-based, Enterococcus faecium
Procedure: as §1, §2, §3

[23] = test system: E. faecium MRO 04037; format: cell-based, Enterococcus faecium
Procedure: as §1, §2, §3

[24] = test system: E. faecalis MRO 04205; format: cell-based, Enterococcus faecalis
Procedure: as §1, §2, §3

[25] = test system: E. faecalis ATCC 51299; format: cell-based, Enterococcus faecalis
Procedure: as §1, §2, §3

[26] = test system: E. faecalis ATCC 29212; format: cell-based, Enterococcus faecalis
Procedure: as §1, §2, §3

[27] = test system: E. faecalis MRO 04050; format: cell-based, Enterococcus faecalis
Procedure: as §1, §2, §3

[28] = test system: E. faecalis MRO 04035; format: cell-based, Enterococcus faecalis
Procedure: as §1, §2, §3

- MIC ([1]; Staphylococcus saprophyticus, MRO02003, 35° C., read-out: Antimicrobial Screening (MIC)): 1 µg/mL (≈ 2.09 µM)
- MIC ([2]; Staphylococcus epidermidis, MRO002046, 35° C., read-out: Antimicrobial Screening (MIC)): 0.5 µg/mL (≈ 1.04 µM)
- MIC ([3]; Staphylococcus epidermidis, MRO02002, 35° C., read-out: Antimicrobial Screening (MIC)): 0.5 µg/mL (≈ 1.04 µM)
- MIC ([5]; Staphylococcus epidermidis, MRO02095, 35° C., read-out: Antimicrobial Screening (MIC)): 0.5 µg/mL (≈ 1.04 µM)
- MIC ([6]; Staphylococcus epidermidis, MRO02045, 35° C., read-out: Antimicrobial Screening (MIC)): 0.5 µg/mL (≈ 1.04 µM)
- MIC ([7]; Staphylococcus aureus, MRO00013, 35° C., read-out: Antimicrobial Screening (MIC)): 1 µg/mL (≈ 2.09 µM)
- MIC ([8]; Staphylococcus aureus, MRO00059, 35° C., read-out: Antimicrobial Screening (MIC)): 0.5 µg/mL (≈ 1.04 µM)
- MIC ([9]; Staphylococcus aureus, MRO00048, 35° C., read-out: Antimicrobial Screening (MIC)): 0.5 µg/mL (≈ 1.04 µM)
- MIC ([10]; Staphylococcus aureus, MRO002053, 35° C., read-out: Antimicrobial Screening (MIC)): 0.5 µg/mL (≈ 1.04 µM)
- MIC ([11]; Staphylococcus aureus, ATCC43300, 35° C., read-out: Antimicrobial Screening (MIC)): 1 µg/mL (≈ 2.09 µM)
- MIC ([12]; Staphylococcus aureus, MRO0003, 35° C., read-out: Antimicrobial Screening (MIC)): 1 µg/mL (≈ 2.09 µM)
- MIC ([13]; Staphylococcus aureus, MRO00055, 35° C., read-out: Antimicrobial Screening (MIC)): 1 µg/mL (≈ 2.09 µM)
- MIC ([14]; Staphylococcus aureus, MRO00030, 35° C., read-out: Antimicrobial Screening (MIC)): 0.5 µg/mL (≈ 1.04 µM)
- MIC ([15]; Staphylococcus aureus, ATCC29213, 35° C., read-out: Antimicrobial Screening (MIC)): 1 µg/mL (≈ 2.09 µM)
- MIC ([16]; Staphylococcus aureus, MRO0001, 35° C., read-out: Antimicrobial Screening (MIC)): 0.5 µg/mL (≈ 1.04 µM)
- MIC ([17]; Moraxella catarrhalis, ATCC43617, 35° C., read-out: Antimicrobial Screening (MIC)): 2 µg/mL (≈ 4.18 µM)
- MIC ([18]; Moraxella catarrhalis, ATCC43627, 35° C., read-out: Antimicrobial Screening (MIC)): 2 µg/mL (≈ 4.18 µM)
- MIC ([19]; Moraxella catarrhalis, ATCC43628, 35° C., read-out: Antimicrobial Screening (MIC)): 2 µg/mL (≈ 4.18 µM)
- MIC ([20]; Enterococcus faecium, MRO04038, 35° C., read-out: Antimicrobial Screening (MIC)): 0.5 µg/mL (≈ 1.04 µM)
- MIC ([21]; Enterococcus faecium, ATCC700221, 35° C., read-out: Antimicrobial Screening (MIC)): 0.5 µg/mL (≈ 1.04 µM)
- MIC ([22]; Enterococcus faecium, MRO04198, 35° C., read-out: Antimicrobial Screening (MIC)): 0.5 µg/mL (≈ 1.04 µM)
- MIC ([23]; Enterococcus faecium, MRO04037, 35° C., read-out: Antimicrobial Screening (MIC)): 0.5 µg/mL (≈ 1.04 µM)
- MIC ([24]; Enterococcus faecalis, MRO04205, 35° C., read-out: Antimicrobial Screening (MIC)): 0.5 µg/mL (≈ 1.04 µM)
- MIC ([25]; Enterococcus faecalis, ATCC51299, 35° C., read-out: Antimicrobial Screening (MIC)): 0.5 µg/mL (≈ 1.04 µM)
- MIC ([26]; Enterococcus faecalis, ATCC29212, 35° C., read-out: Antimicrobial Screening (MIC)): 0.5 µg/mL (≈ 1.04 µM)
- MIC ([27]; Enterococcus faecalis, MRO04050, 35° C., read-out: Antimicrobial Screening (MIC)): 0.5 µg/mL (≈ 1.04 µM)
- MIC ([28]; Enterococcus faecalis, MRO04035, 35° C., read-out: Antimicrobial Screening (MIC)): 0.5 µg/mL (≈ 1.04 µM)
Structure (SMILES): COC(=S)NC[C@H]1CN(c2ccc(N3CCN(C(=O)Cn4cnnn4)CC3)c(F)c2)C(=O)O1 [Example 72, (S)—O-Methyl (3-(4-(4-(2-(1H-tetrazol-1-yl)acetyl)piperazin-1-yl)-3-fluorophenyl)-2-oxooxazolidin-5-yl)methylcarbamothioate]
- MIC ([4]; Staphylococcus haemolyticus, MRO02064, 35° C., read-out: Antimicrobial Screening (MIC)): 0.5 µg/mL (≈ 1.04 µM)

Structure (SMILES): COC(=S)NC[C@H]1CN(c2ccc(N3CCN(C(=O)CNS(C)(=O)=O)CC3)c(F)c2)C(=O)O1 [Example 43]
- Antimicrobial Screening (MIC) ([1]; 35° C.): 0.5 µg/mL
- Antimicrobial Screening (MIC) ([2]; 35° C.): 0.25 µg/mL
- Antimicrobial Screening (MIC) ([3]; 35° C.): 0.5 µg/mL
- Antimicrobial Screening (MIC) ([4]; 35° C.): 0.5 µg/mL
- Antimicrobial Screening (MIC) ([5]; 35° C.): 0.5 µg/mL
- Antimicrobial Screening (MIC) ([6]; 35° C.): 0.5 µg/mL
- Antimicrobial Screening (MIC) ([7]; 35° C.): 0.5 µg/mL
- Antimicrobial Screening (MIC) ([8]; 35° C.): 0.5 µg/mL
- Antimicrobial Screening (MIC) ([9]; 35° C.): 0.5 µg/mL
- Antimicrobial Screening (MIC) ([10]; 35° C.): 0.5 µg/mL
- Antimicrobial Screening (MIC) ([11]; 35° C.): 0.5 µg/mL
- Antimicrobial Screening (MIC) ([12]; 35° C.): 0.5 µg/mL
- Antimicrobial Screening (MIC) ([13]; 35° C.): 0.5 µg/mL
- Antimicrobial Screening (MIC) ([14]; 35° C.): 0.5 µg/mL
- Antimicrobial Screening (MIC) ([15]; 35° C.): 0.5 µg/mL
- Antimicrobial Screening (MIC) ([16]; 35° C.): 0.25 µg/mL
- Antimicrobial Screening (MIC) ([17]; 35° C.): 1 µg/mL
- Antimicrobial Screening (MIC) ([18]; 35° C.): 2 µg/mL
- Antimicrobial Screening (MIC) ([19]; 35° C.): 2 µg/mL
- Antimicrobial Screening (MIC) ([20]; 35° C.): 0.25 µg/mL
- Antimicrobial Screening (MIC) ([21]; 35° C.): 0.25 µg/mL
- Antimicrobial Screening (MIC) ([22]; 35° C.): 0.5 µg/mL
- Antimicrobial Screening (MIC) ([23]; 35° C.): 0.25 µg/mL
- Antimicrobial Screening (MIC) ([24]; 35° C.): 0.25 µg/mL
- Antimicrobial Screening (MIC) ([25]; 35° C.): 0.25 µg/mL
- Antimicrobial Screening (MIC) ([26]; 35° C.): 0.25 µg/mL
- Antimicrobial Screening (MIC) ([27]; 35° C.): 0.25 µg/mL
- Antimicrobial Screening (MIC) ([28]; 35° C.): 0.25 µg/mL
